Experimental data published in patent EP0178388A1, “Quinolinecarboxylic acid derivatives” (KYORIN PHARMACEUTICAL CO., LTD., priority 1984, dated 1986).
In brackets after ≈: the same amount, converted by molar mass. Structures can show the parent of a compound that is named as a salt. Where two headings read alike, the source gives them in different places.

Key:
[1] = tested on: Escherichia coli NIHJ JC-2; assay: In vitro antibacterial activity, MIC (standard strain); type: cell-based; details: NIHJJC2, Escherichia coli NIHJ JC-2, 10^6 cells/ml
B. fragilis 25285 = assay: as above; type: cell-based; details: Bacteroides fragilis; B. fragilis 25285, 10^6 cells/ml, standard strain; read-out: MIC
S. faecalis IID 682 = assay: as above; type: cell-based; details: Enterococcus faecalis, IID682, S. faecalis IID 682, 10^6 cells/ml
E. coli ML4707 [2] = assay: In vivo antibacterial activity against systemic infection in mice; details: Escherichia coli, ML4707, po, 1 h, E. coli ML4707, mice (ICR-S), intraperitoneal infection, oral at 1 hour after infection, read-out: ED50
Method: Experiment 2 In vivo antibacterial activity against systemic infection in mice (ICR-S)
The infections were produced by intraperitoneal infection of a suspension of the bacterial culture corresponding to the germ studied. The product was administered orally at 1 hour after the infection. The 50% effective dose (ED50) which protects 50% of the animals from death caused by the infection was determined from the relation between dosage and survival rate.

[3] = tested on: Alcaligenes faecalis 0114002; assay: In vitro antibacterial activity, MIC (standard strain); type: cell-based; details: Alcaligenes faecalis 0114002, 10^6 cells/ml
S. faecalis 402 = assay: In vitro antibacterial activity, MIC (clinical isolates); type: cell-based; details: Enterococcus faecalis; S. faecalis 402, 10^6 cells/ml, clinical isolate
[4] = tested on: F. varium KYA (ATCC) 8501; assay: In vitro antibacterial activity, MIC (standard strain); type: cell-based; details: Fusobacterium varium, F. varium KYA (ATCC) 8501, 10^6 cells/ml
[5] = tested on: Veillonella parvula KYA 10790; assay: as above; type: cell-based; details: KYA10790, Veillonella parvula KYA 10790, 10^6 cells/ml
S. pyogenes 4372 = assay: In vitro antibacterial activity, MIC (clinical isolates); type: cell-based; details: Streptococcus pyogenes; S. pyogenes 4372, 10^6 cells/ml, clinical isolate
S. faecalis 401 = assay: as above; type: cell-based; details: Enterococcus faecalis; S. faecalis 401, 10^6 cells/ml, clinical isolate
E. coli ML4707 [6] = assay: MIC against the infecting strain (Table 2); type: cell-based; details: Escherichia coli; E. coli ML4707 (Table 2, parts 1 and 2)
Method: The in vitro antibacterial activity has been investigated, the minimun inhibitory concentration (MIC) was determined in accordance with the method recommended by Japan Society of Chemotherapy.

E. coli ATCC 10536 = assay: In vitro antibacterial activity, MIC (standard strain); type: cell-based; details: Escherichia coli, ATCC10536
S. pyogenes IID 692 = assay: as above; type: cell-based; details: Streptococcus pyogenes, IID692, S. pyogenes IID 692, 10^6 cells/ml
[7] = tested on: Citrobacter freundii IID 976; assay: as above; type: cell-based; details: IID976
S. pneumoniae 2054 = assay: In vitro antibacterial activity, MIC (clinical isolates); type: cell-based; details: Streptococcus pneumoniae; S. pneumoniae 2054, 10^6 cells/ml, clinical isolate
[8] = tested on: Acinetobacter anitratus IID 876; assay: In vitro antibacterial activity, MIC (standard strain); type: cell-based; details: Acinetobacter calcoaceticus, IID876; Acinetobacter anitratus IID 876, 10^6 cells/ml, standard strain; read-out: MIC
S. epidermidis IID 866 = assay: as above; type: cell-based; details: Staphylococcus epidermidis, IID866, S. epidermidis IID 866, 10^6 cells/ml
S. agalactiae 4394 = assay: In vitro antibacterial activity, MIC (clinical isolates); type: cell-based; details: Streptococcus agalactiae; S. agalactiae 4394, 10^6 cells/ml, clinical isolate
[9] = tested on: Bacteroides fragilis GM 7000; assay: In vitro antibacterial activity, MIC (standard strain); type: cell-based; details: GM7000; Bacteroides fragilis GM 7000, 10^6 cells/ml, standard strain; read-out: MIC
P. aeruginosa IFO 12689 = assay: as above; type: cell-based; details: Pseudomonas aeruginosa, IFO12689, P. aeruginosa IFO 12689, 10^6 cells/ml, standard strain; read-out: MIC
S. agalactiae 4470 = assay: In vitro antibacterial activity, MIC (clinical isolates); type: cell-based; details: Streptococcus agalactiae; S. agalactiae 4470, 10^6 cells/ml, clinical isolate
P. morganii IID 602 = assay: In vitro antibacterial activity, MIC (standard strain); type: cell-based; details: Morganella morganii, IID602; P. morganii IID 602, 10^6 cells/ml, standard strain; read-out: MIC
[10] = tested on: Pseudomonas aeruginosa V-1; assay: as above; type: cell-based; details: V1; Pseudomonas aeruginosa V-1, 10^6 cells/ml, standard strain; read-out: MIC
S. agalactiae 4468 = assay: In vitro antibacterial activity, MIC (clinical isolates); type: cell-based; details: Streptococcus agalactiae; S. agalactiae 4468, 10^6 cells/ml, clinical isolate
S. pyogenes 3107 = assay: as above; type: cell-based; details: Streptococcus pyogenes; S. pyogenes 3107, 10^6 cells/ml, clinical isolate
[11] = tested on: Yersinia enterocolitica IID 981; assay: In vitro antibacterial activity, MIC (standard strain); type: cell-based; details: IID981; Yersinia enterocolitica IID 981, 10^6 cells/ml, standard strain; read-out: MIC
S. faecalis 214 = assay: In vitro antibacterial activity, MIC (clinical isolates); type: cell-based; details: Enterococcus faecalis; S. faecalis 214, 10^6 cells/ml, clinical isolate
S. pyogenes 3102 = assay: as above; type: cell-based; details: Streptococcus pyogenes; S. pyogenes 3102, 10^6 cells/ml, clinical isolate
S. agalactiae 4368 = assay: as above; type: cell-based; details: Streptococcus agalactiae; S. agalactiae 4368, 10^6 cells/ml, clinical isolate
S. pyogenes 3130 = assay: as above; type: cell-based; details: Streptococcus pyogenes; S. pyogenes 3130, 10^6 cells/ml, clinical isolate
[12] = challenge dose 8.3 x 10^6 cfu/mouse (part 2)

| Structure (SMILES) | MIC [1] [µg/mL] | MIC (B. fragilis 25285) [µg/mL] | MIC (S. faecalis IID 682) [µg/mL] | ED50 (E. coli ML4707 [2]; [12]) [mg/kg] | MIC [3] [µg/mL] | MIC (S. faecalis 402) [µg/mL] | MIC [4] [µg/mL] | MIC [5] [µg/mL] | MIC (S. pyogenes 4372) [µg/mL] | MIC (S. faecalis 401) [µg/mL] | MIC (E. coli ML4707 [6]) [µg/mL] | MIC (S. pyogenes IID 692) [µg/mL] | MIC (S. pneumoniae 2054) [µg/mL] | MIC [8] [µg/mL] | MIC (S. epidermidis IID 866) [µg/mL] | MIC (S. agalactiae 4394) [µg/mL] | MIC [9] [µg/mL] | MIC (P. aeruginosa IFO 12689) [µg/mL] | MIC (S. agalactiae 4470) [µg/mL] | MIC (P. morganii IID 602) [µg/mL] | other results |
| --- | --- | --- | --- | --- | --- | --- | --- | --- | --- | --- | --- | --- | --- | --- | --- | --- | --- | --- | --- | --- | --- |
| CC1CN(c2c(F)cc3c(=O)c(C(=O)O)cn(C4CC4)c3c2F)CCN1 (stereo not drawn) [Example 2, l-Cyclopropyl-6,8-difluoro-l,4-dihydro-7-(3-methyl-l-piperazinyl)-4-oxoquinoline-3-carboxylic acid] | ≤ 0.006 | 0.78 (≈ 2.15 µM) | 0.78 (≈ 2.15 µM) | 0.17 | 0.2 (≈ 0.55 µM) | 1.56 (≈ 4.29 µM) | 6.25 (≈ 17.2 µM) | 0.2 (≈ 0.55 µM) | 0.78 (≈ 2.15 µM) | 1.56 (≈ 4.29 µM) | 0.0125 (≈ 0.0344 µM) | 0.78 (≈ 2.15 µM) | 1.56 (≈ 4.29 µM) | 0.006 (≈ 0.0165 µM) | 0.2 (≈ 0.55 µM) | 1.56 (≈ 4.29 µM) | 1.56 (≈ 4.29 µM) | 0.78 (≈ 2.15 µM) | 0.78 (≈ 2.15 µM) | 0.05 (≈ 0.138 µM) | ED50 (E. coli ML4707 [2]; challenge dose 6.0 x 10^6 cfu/mouse (part 1)): 0.09 mg/kg; MIC (E. coli ATCC 10536; E. coli ATCC 10536, 10^6 cells/ml, standard strain, read-out: MIC): ≤ 0.006 µg/mL; MIC ([7]; Citrobacter freundii): 0.0125 µg/mL (≈ 0.0344 µM); MIC [10]: 0.2 µg/mL (≈ 0.55 µM); MIC (S. agalactiae 4468): 0.78 µg/mL (≈ 2.15 µM); MIC (S. pyogenes 3107): 0.78 µg/mL (≈ 2.15 µM); MIC [11]: 0.05 µg/mL (≈ 0.138 µM); MIC (S. faecalis 214): 0.78 µg/mL (≈ 2.15 µM); MIC (S. pyogenes 3102): 0.78 µg/mL (≈ 2.15 µM); MIC (S. agalactiae 4368): 0.78 µg/mL (≈ 2.15 µM); MIC (S. pyogenes 3130): 0.78 µg/mL (≈ 2.15 µM) |
| CC1CN(c2c(F)cc3c(=O)c(C(=O)O)cn(C4CC4)c3c2Cl)CCN1 (stereo not drawn) [Example 5, 8-Chloro-l-cyclopropyl-6-fluoro-1,4-dihydro-7-(3-methyl-1-piperazinyl)-4-oxoquinoline-3-carboxylic acid hydrochloride] | ≤ 0.006 | 0.39 | 0.39 | 0.12 | 0.39 | 0.78 | 3.13 | 0.2 | 0.39 | 0.78 | 0.0125 | 0.78 | 0.78 | 0.05 | 0.1 | 0.78 | 0.39 | 1.56 | 0.78 | 0.1 | MIC (E. coli ATCC 10536): 0.0125 µg/mL; MIC ([7]; Citrobacter freundii IID 976, 10^6 cells/ml, standard strain, read-out: MIC): 0.025 µg/mL; MIC [10]: 0.78 µg/mL; MIC (S. agalactiae 4468): 0.39 µg/mL; MIC (S. pyogenes 3107): 0.39 µg/mL; MIC [11]: 0.05 µg/mL; MIC (S. faecalis 214): 0.78 µg/mL; MIC (S. pyogenes 3102): 0.39 µg/mL; MIC (S. agalactiae 4368): 0.39 µg/mL; MIC (S. pyogenes 3130): 0.39 µg/mL |
